Inconclusive results and toxic doses are left out. Cut-off read from the data, not from the text of the source: active = T/C of 150% or more; inactive = T/C below 125%.
System: L1210 leukemia ip in BDF1 mice, survival T/C
Assay: NCI In Vivo Anticancer Drug Screen. Data for tumor model L1210 Leukemia (intraperitoneal) in B6D2F1 (BDF1) mice
Settings: endpoint: mean survival time, higher = longer survival
How it was run: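 Antitumor effect is assessed in tumor-bearing animals. Survival in the compound arm is compared with a vehicle-dosed control arm and expressed as their quotient.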

[1] = dose: 50.0 mg/kg/injection, schedule: Q04DX002 (ip), vehicle: Klucel (hydroxypropylcellulose) (HPC)
[2] = dose: 100.0 mg/kg/injection, schedule: Q04DX002 (ip), vehicle: Klucel (hydroxypropylcellulose) (HPC)
[3] = dose: 100.0 mg/kg/injection, schedule: Q04DX003 (ip), vehicle: saline
[4] = dose: 200.0 mg/kg/injection, schedule: Q04DX003 (ip), vehicle: saline
[5] = dose: 400.0 mg/kg/injection, schedule: Q04DX003 (ip), vehicle: saline
[6] = dose: 100.0 mg/kg/injection, schedule: Q01DX001 (ip), vehicle: saline
[7] = dose: 200.0 mg/kg/injection, schedule: Q01DX001 (ip), vehicle: saline
[8] = dose: 400.0 mg/kg/injection, schedule: Q01DX001 (ip), vehicle: saline
[9] = dose: 200.0 mg/kg/injection, schedule: Q04DX002 (ip), vehicle: Klucel (hydroxypropylcellulose) (HPC)
[10] = dose: 100.0 mg/kg/injection, schedule: Q01DX009 (ip), vehicle: saline with Tween-80
[11] = dose: 200.0 mg/kg/injection, schedule: Q01DX009 (ip), vehicle: saline with Tween-80
[12] = dose: 400.0 mg/kg/injection, schedule: Q01DX009 (ip), vehicle: saline with Tween-80
[13] = dose: 100.0 mg/kg/injection, schedule: Q01DX009 (ip), vehicle: saline
[14] = dose: 200.0 mg/kg/injection, schedule: Q01DX009 (ip), vehicle: saline
[15] = dose: 400.0 mg/kg/injection, schedule: Q01DX009 (ip), vehicle: saline
[16] = dose: 25.0 mg/kg/injection, schedule: Q04DX003 (ip), vehicle: saline
[17] = dose: 50.0 mg/kg/injection, schedule: Q04DX003 (ip), vehicle: saline

Measured: T/C

CCN(CC)CCOCCOC(=O)C(CC)(CC)c1cccc2ccccc12
inactive: dose: 25.0 mg/kg/injection, schedule: Q04DX002 (ip), vehicle: Klucel (hydroxypropylcellulose) (HPC) 93 % of control | [1] 97 % of control | [2] 93 % of control

O=C(O)c1nccc2ccccc12
inactive: [3] 96 % of control | [4] 112 % of control | [5] 90 % of control

O=C(O)c1ccccc1C(=O)c1ccccc1
inactive: dose: 100.0 mg/kg/injection, schedule: Q01DX001 (ip), vehicle: Klucel (hydroxypropylcellulose) (HPC) 97 % of control | dose: 200.0 mg/kg/injection, schedule: Q01DX001 (ip), vehicle: Klucel (hydroxypropylcellulose) (HPC) 97 % of control | dose: 400.0 mg/kg/injection, schedule: Q01DX001 (ip), vehicle: Klucel (hydroxypropylcellulose) (HPC) 95 % of control

Cc1cc2nc(Cc3nc4cc(C)c(C)cc4[nH]3)[nH]c2cc1C
inactive: dose: 50.0 mg/kg/injection, schedule: Q01DX Z (ip), vehicle: saline 105 % of control | [6] 92 % of control | dose: 100.0 mg/kg/injection, schedule: Q01DX Z (ip), vehicle: saline 95 % of control | [3] 100 % of control | [7] 93 % of control | dose: 200.0 mg/kg/injection, schedule: Q01DX Z (ip), vehicle: saline 100 % of control | [4] 92 % of control | [8] 90 % of control | dose: 400.0 mg/kg/injection, schedule: Q01DX Z (ip), vehicle: saline 97 % of control | [5] 86 % of control

OCCN1CCN(CCCN2c3ccccc3Sc3ccc(Cl)cc32)CC1
inactive: dose: 6.25 mg/kg/injection, schedule: Q01DX001 (ip), vehicle: Klucel (hydroxypropylcellulose) (HPC) 97 % of control | dose: 12.5 mg/kg/injection, schedule: Q01DX001 (ip), vehicle: Klucel (hydroxypropylcellulose) (HPC) 105 % of control | dose: 25.0 mg/kg/injection, schedule: Q01DX001 (ip), vehicle: Klucel (hydroxypropylcellulose) (HPC) 111 % of control | [9] 108 % of control

Cc1ccc(CSc2ssc(=S)c2-c2ccccc2)cc1
inactive: [10] 101 % of control | dose: 100.0 mg/kg/injection, schedule: Q04DX003 (ip), vehicle: acetone 99 % of control | [11] 97 % of control | dose: 200.0 mg/kg/injection, schedule: Q04DX003 (ip), vehicle: acetone 98 % of control | [12] 95 % of control | dose: 400.0 mg/kg/injection, schedule: Q04DX003 (ip), vehicle: acetone 91 % of control

COc1ccc2c(c1)N(C(=O)C(Cl)(Cl)Cl)Cc1ccccc1C2=O
inactive: [13] 87 % of control | [14] 93 % of control | [15] 96 % of control

Clc1ccc2c(c1)Cc1cc(N=Cc3ccccc3Cl)ccc1-2
inactive: dose: 12.5 mg/kg/injection, schedule: Q01DX001 (ip), vehicle: saline 97 % of control | dose: 12.5 mg/kg/injection, schedule: Q04DX003 (ip), vehicle: saline 92 % of control | dose: 25.0 mg/kg/injection, schedule: Q01DX001 (ip), vehicle: saline 87 % of control | [16] 93 % of control | dose: 50.0 mg/kg/injection, schedule: Q01DX001 (ip), vehicle: saline 106 % of control | [17] 87 % of control | dose: 65.0 mg/kg/injection, schedule: Q01DX Z (ip), vehicle: carboxymethylcellulose (CMC) 90 % of control | dose: 75.0 mg/kg/injection, schedule: Q04DX003 (ip), vehicle: saline 101 % of control | dose: 115.0 mg/kg/injection, schedule: Q04DX003 (ip), vehicle: saline 89 % of control | dose: 125.0 mg/kg/injection, schedule: Q01DX Z (ip), vehicle: carboxymethylcellulose (CMC) 96 % of control | dose: 170.0 mg/kg/injection, schedule: Q04DX003 (ip), vehicle: saline 103 % of control | [7] 89 % of control | dose: 250.0 mg/kg/injection, schedule: Q01DX Z (ip), vehicle: carboxymethylcellulose (CMC) 102 % of control | dose: 500.0 mg/kg/injection, schedule: Q01DX Z (ip), vehicle: carboxymethylcellulose (CMC) 102 % of control

CC(=O)Oc1ccc([N+](=O)[O-])cc1OC(C)=O
inactive: dose: 75.0 mg/kg/injection, schedule: Q01DX001 (ip), vehicle: water 92 % of control | dose: 150.0 mg/kg/injection, schedule: Q01DX001 (ip), vehicle: water 92 % of control | dose: 300.0 mg/kg/injection, schedule: Q01DX001 (ip), vehicle: water 95 % of control

COc1ccccc1/C=C1\SC(=O)N(CCNC(C)=O)C1=O
inactive: [6] 98 % of control | [7] 100 % of control | [8] 96 % of control

COc1ccc2c3c1OC1C(O)C=CC4C(C2)N(C)CCC341 (stereo unspecified)
inactive: [6] 98 % of control

Cc1ccc(S(=O)(=O)N(C)c2ccc(I)c(Cl)c2Cl)cc1
inactive: dose: 100.0 mg/kg/injection, schedule: Q04DX003 (ip), vehicle: Klucel (hydroxypropylcellulose) (HPC) 102 % of control | dose: 200.0 mg/kg/injection, schedule: Q04DX003 (ip), vehicle: Klucel (hydroxypropylcellulose) (HPC) 96 % of control | dose: 400.0 mg/kg/injection, schedule: Q04DX003 (ip), vehicle: Klucel (hydroxypropylcellulose) (HPC) 98 % of control

O=C(CS(=O)(=O)O)Nc1ccccc1 (tested in a mixture with another compound)
inactive: dose: 100.0 mg/kg/injection, schedule: Q01DX001 (ip), vehicle: saline with Tween-80 93 % of control | dose: 200.0 mg/kg/injection, schedule: Q01DX001 (ip), vehicle: saline with Tween-80 103 % of control | dose: 400.0 mg/kg/injection, schedule: Q01DX001 (ip), vehicle: saline with Tween-80 90 % of control

Nc1ccc(S(=O)(=O)Nc2ccc(N(CCCl)CCCl)cc2)cc1
inactive: [10] 108 % of control | dose: 100.0 mg/kg/injection, schedule: Q04DX003 (ip), vehicle: saline with Tween-80 105 % of control | [11] 113 % of control | dose: 200.0 mg/kg/injection, schedule: Q04DX003 (ip), vehicle: saline with Tween-80 103 % of control | [12] 111 % of control | dose: 400.0 mg/kg/injection, schedule: Q04DX003 (ip), vehicle: saline with Tween-80 102 % of control

CC1=CC2C(C(C)C)CC1C1C(=O)OC(=O)C21 (stereo unspecified)
inactive: [2] 102 % of control | [9] 100 % of control

CC(=O)OC1CC2C(CCC3(C)C(C(C)=O)CCC23)C2(C)CCC(O)C=C12 (stereo unspecified)
inactive: dose: 75.0 mg/kg/injection, schedule: Q01DX001 (ip), vehicle: other 101 % of control | dose: 150.0 mg/kg/injection, schedule: Q01DX001 (ip), vehicle: other 98 % of control | dose: 300.0 mg/kg/injection, schedule: Q01DX001 (ip), vehicle: other 103 % of control

Cc1cccc(CO)n1
inactive: [13] 106 % of control | [3] 110 % of control | [14] 108 % of control | [4] 110 % of control | [15] 103 % of control | [5] 103 % of control

CC(C)=CCCC(C)CCN(C)C (stereo unspecified)
inactive: [16] 96 % of control | [17] 97 % of control | [3] 96 % of control

CS(=O)(=O)Nc1ccccc1-c1nc2ccccc2c(=O)o1
inactive: [1] 98 % of control | [2] 98 % of control | [9] 98 % of control | dose: 400.0 mg/kg/injection, schedule: Q04DX002 (ip), vehicle: Klucel (hydroxypropylcellulose) (HPC) 92 % of control

OC(COc1c(Cl)c(Cl)c(Cl)c(Cl)c1Cl)CN1CCN(c2ccccc2Cl)CC1 (stereo unspecified)
inactive: [6] 95 % of control | [7] 92 % of control | [8] 92 % of control
